Results on 5 compounds are retold here after patent US6180622A, “Imidazo[5,1-b]thiazol-3-yl carbapenem antimicrobials” (priority 1996, dated 2001).

In one data set the test system is S. aureus M126. Put plainly: Antimicrobial activity (minimum inhibitory concentration). Type of data set: cell-based. As to conditions: Staphylococcus aureus; S. aureus M126, highly meticillin-resistant strain. As to the method: (§1) For representative compounds among the novel carbapenem derivatives of the present invention, the minimum inhibitory concentration (MIC, μg/ml) against various pathogenic bacteria was measured in accordance with a method described in CHEMOTHERAPY, Vol. 16, No. 1, 99 (1968).

The subject of a further data set is Ps. aeruginosa GN10362. The description is as above. In kind it is cell-based. Conditions: Pseudomonas aeruginosa. As to the method:
as §1

For a further data set, the system named is C. freundii GN346. Described as above. Type of data set: cell-based. Conditions: Citrobacter freundii. The procedure: as §1
Another data set concerns E. coli NIHJ JC-2. The data set is described as above. Type of data set: cell-based. Conditions: Escherichia coli, NIHJJC2. The procedure: as §1
The subject of a further data set is S. marcescens No. 1. The description is as above. Type of data set: cell-based. Conditions: Serratia marcescens. The procedure: as §1
The subject of a further data set is K. pneumoniae PCI602. The data set is described as above. Type of data set: cell-based. As to conditions: Klebsiella pneumoniae. As to the method: as §1
Another data set deals with M. morganii 1510. Described as above. Type of data set: cell-based. As to conditions: Morganella morganii. As to the method: as §1
The test system of the next data set is E. cloacae G-0008. Described as above. Type of data set: cell-based. As to conditions: Enterobacter cloacae, G0008. As to the method: as §1
A further data set concerns E. coli GN206. The data set is described as above. Type of data set: cell-based. As to conditions: Escherichia coli. As to the method:
as §1

The subject of another data set is S. aureus 209P JC-1. Described as above. Type of data set: cell-based. Conditions: Staphylococcus aureus. As to the method: as §1
Another data set relates to P. vulgaris GN76. Described as above. As to conditions: Proteus vulgaris. In kind it is cell-based. As to the method:
as §1

The nature of data set [1]: Stability against DHP-I (mouse). In kind it is in vitro ADME. As to conditions: kidney dhp-i, 100 μg (potency)/ml, 37° C., pH 7.0, read-out: residue (%) of the carbapenem derivative. The procedure:
(§2) The stability of representative compounds, among the novel carbapenem derivatives of the present invention, against kidney dehydropeptidase-I (DHP-I) of a pig and a mouse was measured, and the residue (%) of the carbapenem derivatives three hr after the initiation of the test is summarized in Table 6.
(§3) 1.5 g of a kidney acetone powder (manufactured by Sigma) Porcine Type II (Lot. 33H7225) was suspended in 100 ml of 50 mM Tris-HCl buffer (pH 7.0) containing 20% butanol, and the suspension was stirred at 5° C. for 48 hr. The suspension was then dialyzed against 50 mM Tris-HCl buffer (pH 7.0) (a cellulose tube 30/32 Viskase Sales Corp.) until the odor of butanol disappeared, thereby removing butanol. The dialyzate is centrifuged at 10000×g (KUBOTA 6800) for 20 min, and the supernatant was obtained as a partially purified DHP-I. This partially purified DHP-I was subdivided and stored at -80° C. The above procedure was repeated, except that 1.5 g of Mouse (Lot. 23F8105) was used. Thus, a partially purified DHP-I was prepared and stored.
(§4) For the carbapenem as the substrate agent, a solution (2000 μg (potency)/ml) was prepared using sterilized, purified water. For the sample solution, the carbapenem (2000 μg (potency)/ml) solution was added to the partially purified DHP-I of each animal to a final concentration of 100 μg (potency)/ml). For the blank, 50 mM Tris-HCl buffer (pH 7.0) was used instead of the partially purified DHP-I of each animal. The reaction was allowed to proceed at 37° C. for 3 hr, and a given amount of the reaction mixture was sampled. Methanol in the same amount as the sampled reaction mixture was added under ice cooling to terminate the reaction. The reaction mixture was filtered through a filter (Sanprep LCR 13-LH manufactured by MILLIPORE) and subjected to HPLC (column: CAPCELL PACK C18SG120, manufactured by Shiseido Co., Ltd.; detection: UV; mobile layer: acetonitrile/10 mM aqueous acetic acid solution) to determined the residue (%).
(§5) Residue (%)=(Sample Peak Area/Blank Peak Area)×100

A short description of data set [2]: Stability against DHP-I (pig). In kind it is in vitro ADME. Conditions: kidney dhp-i, 100 μg (potency)/ml, 37° C., pH 7.0, read-out: residue (%) of the carbapenem derivative. As to the method:
as §2, §3, §4, §5

[3] abbreviates: Ps. aeruginosa GN10362, read-out: MIC.
Setting [4] is: P. vulgaris GN76, read-out: MIC.

One may read the MIC as the smallest concentration in the dilution series that meets the test's criterion for growth inhibition.

The structures appear in SMILES notation. Values after ≈ are worked out from the molar mass of the structure shown. Like-named read-outs stand apart in the source and are kept apart here. A value given as a limit tells only on which side of the number the result lay.

As to `C[C@@H](O)[C@H]1C(=O)N2C(C(=O)O)=C(S[C@@H]3CN[C@H](Cc4cn5c[n+](CC(N)=O)cc5s4)C3)[C@H](C)[C@H]12` [Ex. 26, (1R,5S,6S)-2-[(3S,5S)-5-[6-(Carbamoylmethyl)imidazo[5,1-b]thiazolium-2-yl]methylpyrrolidin-3-yl]thio-6-((1R)-1-hydroxyethyl)-1-methylcarbapen-2-em-3-carboxylic acid iodide], the MIC in the data set on S. aureus M126 worked out at 6.25 µg/mL; with Ps. aeruginosa GN10362 (setting [3]), 0.78 µg/mL; against C. freundii GN346, 0.05 µg/mL; against E. coli NIHJ JC-2 it was 0.05 µg/mL; in the data set with S. marcescens No. 1 it was 0.2 µg/mL; against K. pneumoniae PCI602 it was 0.1 µg/mL. Moreover, the MIC against M. morganii 1510 was 0.39 µg/mL; with E. cloacae G-0008, 0.05 µg/mL; against E. coli GN206, 0.05 µg/mL; with S. aureus 209P JC-1, below 0.025 µg/mL; in the data set on P. vulgaris GN76 (setting [4]), 0.39 µg/mL. Further, the remaining at 3 h in data set [1] is 90%; in data set [2], 95%.
With `C[C@@H](O)[C@H]1C(=O)N2C(C(=O)O)=C(SCCN=CN)C[C@H]12` [Compound A, Imipenem, reference compound], the minimal inhibitory concentration (MIC) was 50 µg/mL (≈ 167 µM) in the data set on S. aureus M126; 1.56 µg/mL (≈ 5.21 µM) in the data set with Ps. aeruginosa GN10362 (GN10362); 0.1 µg/mL (≈ 0.334 µM) with C. freundii GN346; 0.1 µg/mL (≈ 0.334 µM) against E. coli NIHJ JC-2; 0.39 µg/mL (≈ 1.3 µM) with S. marcescens No. 1; 0.39 µg/mL (≈ 1.3 µM) with K. pneumoniae PCI602. The MIC is 0.78 µg/mL (≈ 2.61 µM) against M. morganii 1510; 0.1 µg/mL (≈ 0.334 µM) against E. cloacae G-0008; 0.1 µg/mL (≈ 0.334 µM) in the data set on E. coli GN206; below 0.025 µg/mL against S. aureus 209P JC-1; 3.13 µg/mL (≈ 10.5 µM) against P. vulgaris GN76 (GN76). Besides, the remaining at 3 h in data set [1] turned out to be 0.6%; in data set [2], 24%.
Turning to `C[C@@H](O)[C@H]1C(=O)N2C(C(=O)O)=C(S[C@@H]3CN[C@H](C(=O)N(C)C)C3)[C@H](C)[C@H]12` [Compound C, Meropenem], the remaining at 3 h in [1] came out at 18%; in data set [2], 71%.
For the compound `CC(=N)N1CC[C@H](SC2=C(C(=O)O)N3C(=O)[C@H]([C@@H](C)O)[C@H]3C2)C1` [Compound B, Panipenem, reference compound], the MIC in the data set on S. aureus M126 came out at 25 µg/mL (≈ 73.7 µM); in the data set with Ps. aeruginosa GN10362 (setting [3]), 12.5 µg/mL (≈ 36.8 µM); in the data set with C. freundii GN346 it was 0.2 µg/mL (≈ 0.589 µM); against E. coli NIHJ JC-2, 0.1 µg/mL (≈ 0.295 µM); in the data set with S. marcescens No. 1, 0.39 µg/mL (≈ 1.15 µM); in the data set on K. pneumoniae PCI602 it was 0.2 µg/mL (≈ 0.589 µM). Further, the minimal inhibitory concentration (MIC) against M. morganii 1510 was 0.78 µg/mL (≈ 2.3 µM); with E. cloacae G-0008 it was 0.2 µg/mL (≈ 0.589 µM); against E. coli GN206, 0.2 µg/mL (≈ 0.589 µM); in the data set with S. aureus 209P JC-1, below 0.025 µg/mL; in the data set with P. vulgaris GN76 (setting [4]), 3.13 µg/mL (≈ 9.22 µM). Moreover, the remaining at 3 h stood at 28% in [1] and 19% in data set [2].
For the compound `C[C@@H](O)[C@H]1C(=O)N2C(C(=O)O)=C(S[C@@H]3CN[C@H](Cc4csc5cncn45)C3)[C@H](C)[C@H]12` [Ex. 20, (1R,5S,6S)-6-((1R)-1-Hydroxyethyl)-2-[(3S,5R)-5-(imidazo[5,1-b]thiazol-3-yl)methylpyrrolidin-3-yl]thio-1-methylcarbapen-2-em-3-carboxylic acid], the remaining at 3 h turned out to be 97% in data set [1] and 100% in data set [2].
